Assay results published in patent publication US20160128952A1, “Pharmaceutical Combination” (Gruenenthal GmbH, priority 2006, published 2016).

Tested on: inflammatory pain
Assay: Randall-Selitto test in rats (carrageenin-induced paw oedema, pressure pain)
Assay type: in vivo, rat
Method: The weight ratios of the components (a) and (b) that will lead to a supra-additive effect (synergistic effect) of the inventive pharmaceutical composition may be determined via the test of Randall and Selitto as described in Arch. Int. Pharmacodyn., 1957, 111: 409 to 419, which is a model for inflammatory pain. The respective part of the literature is hereby incorporated by reference and forms part of the present disclosure.
By means of injection of 0.1 ml of Carrageenin-suspension ventrally into a hind paw of a rat an oedema is induced, on which pain is generated 4 hours later by continuously increasing pressure with a stamp (2 mm tip diameter). The antinociceptive and antihyperalgesic activity of the tested substance is determined at different points in time after administration of the substance. The measured value to be determined and at the same time also the end point of the pain test is the pressure at which the vocalisation reaction of the rat occurs. The percentage maximum possible effect (%MPE) is calculated. The maximum pressure of the stamp is 250 g. The group size is n=10.
The interactions studies presented herein were performed using equieffective doses of the two components, calculated from the ratio of the respective ED50 values of the components if administered alone. […]

| Compound | ED50 (Rattus norvegicus, iv, 0.25 h, i.v., 15 min p. appl. (peak effect), %MPE, vocalisation pressure, n=10, read-out: ED50 (confidence interval) of A applied alone) [mg/kg] | analgesic effect (in words) (Paracetamol alone, i.p.) |
| --- | --- | --- |
| CC[C@@H](c1cccc(O)c1)[C@@H](C)CN(C)C [A, (1R,2R)-3-(3-Dimethylamino-1-ethyl-2-methyl-propyl)-phenol] | 1.88 |  |
| CC(=O)Nc1ccc(O)cc1 [Paracetamol] |  | dose-dependent analgesic effect |
